Reference: patent publication US20120122848A1, “(+)-3-HYDROXYMORPHINAN DERIVATIVES AS NEUROPROTECTANTS” (GREEN CROSS CORPORATION, priority 2009, published 2012)
Counter-ions that a name gives are not always drawn.

Tests used:
[1] = system: HT22 cells (mouse hippocampal neuron); assay: Cell cytotoxicity test: protection of HT22 cells against glutamate toxicity (EC50) and cytotoxicity of the compounds (CC50), MTT; assay type: cell-based; settings: Mus musculus, HT-22, five millimolar glutamate, 24 hrs, read-out: EC50 (neuroprotective effect against glutamate toxicity)
Description: (§1) HT22 cells (mouse hippocampal neuron, Salk Institute and KRIBB) were plated in a 96-well plate at a density of 3×10^3 cells/well for 16 hrs before treatment. The cells were treated with five millimolar glutamate and various concentrations of the inventive compounds and incubated for 24 hrs in a growth media (DMEM with 10% FBS and 1% penicillin streptomycin). Then, the cells were treated with 3-(4,5-dimethylthiazol-2-yl)-2,5-diphenyltetrazolium bromide (MTT, Sigma®) for 4 hrs and absorbance of each well was measured with a plate reader at a wavelength of 450 nm. [Da-Qing, et. al., Anti-oxidant and anti-inflammatory activities of macelignan in murine hippocampal cell line and primary culture of rat microglia cells, BBRC, 2005, 331, 1264-1269].
(§2) In Table 1, EC50 is neuroprotective effect against glutamate toxicity and CC50 is cytotoxicity of the compounds. The EC50 values were statistically analyzed using Prizm® (GraphPad Software Inc., San Diego, Calif., USA).

[2] = as above; assay type: cell-based, mouse; settings: mouse, HT22 cells (mouse hippocampal neuron)
Description: as §1, §2

Structure (SMILES)	EC50 [1]	CC50 at 24 h [2]
Oc1cc2c(cc1Nc1ccc3c(c1)OCO3)C[C@@H]1NCC[C@]23CCCC[C@H]13 [Example 36, (+)-3-Hydroxy-2-((3,4-methylendioxy)phenylamino)morphinan TFA salt]	301 nM	84500 nM
COc1ccccc1Nc1cc2c(cc1O)[C@]13CCCC[C@@H]1[C@H](C2)NCC3 [Example 42, (+)-3-Hydroxy-2-(2-methoxyphenylamino)morphinan TFA salt]	95.9 nM	11400 nM
Oc1cc2c(cc1-c1ccc(C(F)(F)F)cc1)C[C@@H]1NCC[C@]23CCCC[C@H]13 [Example 79, (+)-3-Hydroxy-2-(4-trifluorophenyl)morphinan TFA salt]	6100 nM	11000 nM
Cc1ccccc1Nc1cc2c(cc1O)[C@]13CCCC[C@@H]1[C@H](C2)NCC3 [Example 41, (+)-3-Hydroxy-2-(2-methylphenylamino)morphinan TFA salt]	17.8 nM	6900 nM
CCCN(C)c1cc2c(cc1O)[C@]13CCCC[C@@H]1[C@H](C2)NCC3 [Example 102, (+)-3-Hydroxy-2-(methylpropylamino)morphinan TFA salt]	548 nM	29600 nM
Cc1ccc(-c2cc3c(cc2O)[C@]24CCCC[C@@H]2[C@H](C3)NCC4)cc1 [Example 75, (+)-3-Hydroxy-2-(4-methylphenyl)morphinan TFA salt]	1660 nM	9400 nM
N#Cc1ccccc1Nc1cc2c(cc1O)[C@]13CCCC[C@@H]1[C@H](C2)NCC3 [Example 107, (+)-2-(2-Cyanophenylamino)-3-hydroxymorphinan TFA salt]	557 nM	5800 nM
N#Cc1cccc(-c2cc3c(cc2O)[C@]24CCCC[C@@H]2[C@H](C3)NCC4)c1 [Example 78, (+)-2-(3-Cyanophenyl)-3-hydroxymorphinan TFA salt]	4600 nM	21000 nM
CCCN(CCC)c1cc2c(cc1O)[C@]13CCCC[C@@H]1[C@H](C2)NCC3 [Example 96, (+)-2-(Dipropylamino)-3-hydroxymorphinan TFA salt]	178 nM	3490 nM
Oc1cc2c(cc1Nc1cccc3cccnc13)C[C@@H]1NCC[C@]23CCCC[C@H]13 [Example 66, TFA salt]	21.3 nM	2900 nM
Oc1cc2c(cc1Nc1ccc(Cl)c(Cl)c1)C[C@@H]1NCC[C@]23CCCC[C@H]13 [Example 65, (+)-2-(3,4-Dichlorophenylamino)-3-hydroxymorphinan TFA salt]	314 nM	1600 nM
Oc1cc2c(cc1Nc1ccccc1OC(F)(F)F)C[C@@H]1NCC[C@]23CCCC[C@H]13 [Example 59, (+)-3-Hydroxy-2-(2-(trifluoromethoxy)phenylamino)morphinan TFA salt]	69.3 nM	1700 nM
CS(=O)(=O)Nc1ccccc1Nc1c(O)cc2c(c1Cl)C[C@@H]1NCC[C@]23CCCC[C@H]13 [Example 133, (+)-1-Chloro-3-hydroxy-2-(2-(methanesulfonamido)phenylamino)morphinan TFA salt]	256 nM	16500 nM
CC(C)c1ccc(Nc2cc3c(cc2O)[C@]24CCCC[C@@H]2[C@H](C3)NCC4)cc1 [Example 54, (+)-3-Hydroxy-2-(4-isopropylphenylamino)morphinan TFA salt]	59.8 nM	1500 nM
CCCCS(=O)(=O)Nc1ccccc1Nc1cc2c(cc1O)[C@]13CCCC[C@@H]1[C@H](C2)NCC3 [Example 112, (+)-2-(2-(Butanesulfonamido)phenylamino)-3-hydroxymorphinan TFA salt]	55.6 nM	20000 nM
CS(=O)(=O)Nc1ccc(Nc2cc3c(cc2O)[C@]24CCCC[C@@H]2[C@H](C3)NCC4)cc1 [Example 114, (+)-3-Hydroxy-2-(4-(methanesulfonamido)phenylamino)morphinan TFA salt]	32.9 nM	11400 nM
Oc1cc2c(cc1Nc1ccc(F)cc1)C[C@@H]1NCC[C@]23CCCC[C@H]13 [Example 29, (+)-2-(4-Fluorophenylamino)-3-hydroxymorphinan TFA salt]	33.5 nM	19900 nM
CCCC(CCC)Nc1cc2c(cc1O)[C@]13CCCC[C@@H]1[C@H](C2)NCC3 [Example 89, (+)-2-(Heptan-4-ylamino)-3-hydroxymorphinan TFA salt]	74 nM	1940 nM
CN(C)c1cc2c(cc1O)[C@]13CCCC[C@@H]1[C@H](C2)NCC3 [Example 98, (+)-2-(Dimethylamino)-3-hydroxymorphinan TFA salt]	5690 nM	> 100000 nM

Structure (SMILES)	EC50 [1]	CC50 at 24 h [2]
Oc1cc2c(cc1Nc1ccccc1C(F)(F)F)C[C@@H]1NCC[C@]23CCCC[C@H]13 [Example 52, (+)-3-Hydroxy-2-(2-(trifluoromethyl)phenylamino)morphinan TFA salt]	24.9 nM	1500 nM
CCC(C)Nc1cc2c(cc1O)[C@]13CCCC[C@@H]1[C@H](C2)NCC3 (stereo partly drawn) [Example 95, (+)-2-(sec-Butylamino)-3-hydroxymorphinan TFA salt]	131 nM	66400 nM
Oc1cc2c(cc1-c1ccc(Cl)cc1Cl)C[C@@H]1NCC[C@]23CCCC[C@H]13 [Example 76, (+)-2-(2,4-Dichlorophenyl)-3-hydroxymorphinan TFA salt]	2970 nM	4400 nM
OCCNc1cc2c(cc1O)[C@]13CCCC[C@@H]1[C@H](C2)NCC3 [Example 100, (+)-3-Hydroxy-2-(2-hydroxyethylamino)morphinan TFA salt]	11700 nM	> 100000 nM
Oc1cc2c(cc1Nc1cc(Cl)ccc1Cl)C[C@@H]1NCC[C@]23CCCC[C@H]13 [Example 64, (+)-2-(2,5-Dichlorophenylamino)-3-hydroxymorphinan TFA salt]	464 nM	1900 nM
Oc1cc2c(cc1Nc1ccc(OC(F)(F)F)cc1)C[C@@H]1NCC[C@]23CCCC[C@H]13 [Example 58, (+)-3-Hydroxy-2-(4-(trifluoromethoxy)phenylamino)morphinan TFA salt]	131 nM	1400 nM
CCCCNC(=O)Nc1ccccc1Nc1cc2c(cc1O)[C@]13CCCC[C@@H]1[C@H](C2)NCC3 [Example 121, (+)-2-(2-(Butylureido)phenylamino)-3-hydroxymorphinan TFA salt]	> 100000 nM	23100 nM
CCN(CC)c1cc2c(cc1O)[C@]13CCCC[C@@H]1[C@H](C2)NCC3 [Example 101, (+)-2-(Diethylamino)-3-hydroxymorphinan TFA salt]	14000 nM	> 100000 nM
CC1(c2cc3c(cc2O)[C@]24CCCC[C@@H]2[C@H](C3)NCC4)CCCCC1 [Example 105, (+)-3-Hydroxy-2-(1-methylcyclohexyl)morphinan TFA salt]	594 nM	2240 nM
Oc1cc2c(cc1Nc1ccc3c(c1)CCCC3)C[C@@H]1NCC[C@]23CCCC[C@H]13 [Example 71, (+)-3-Hydroxy-24(5,6,7,8-tetrahydronaphthalen-2-ybamino)morphinan TFA salt]	36.2 nM	1600 nM
Oc1cc2c(cc1N1CCCCC1)C[C@@H]1NCC[C@]23CCCC[C@H]13 [Example 21, (+)-3-Hydroxy-2-(piperidin-1-yl)morphinan TFA salt]	482 nM	63500 nM
CN1CCN(c2cc3c(cc2O)[C@]24CCCC[C@@H]2[C@H](C3)NCC4)CC1 [Example 24, (+)-3-Hydroxy-2-(4-methylpiperazin-1-yl)morphinan 2TFA salt]	3100 nM	14400 nM
CCS(=O)(=O)Nc1ccccc1Nc1cc2c(cc1O)[C@]13CCCC[C@@H]1[C@H](C2)NCC3 [Example 111, (+)-2-(2-(Ethanesulfonamido)phenylamino)-3-hydroxymorphinan TFA salt]	475 nM	36500 nM
Oc1cc2c(cc1Nc1ccc(Br)cc1)C[C@@H]1NCC[C@]23CCCC[C@H]13 [Example 33, (+)-2-(4-Bromophenylamino)-3-hydroxymorphinan TFA salt]	69.7 nM	1670 nM
Oc1cc2c(cc1N1CCCC1)C[C@@H]1NCC[C@]23CCCC[C@H]13 [Example 22, (+)-3-Hydroxy-2-(pyrrolidin-1-yl)morphinan TFA salt]	638 nM	80500 nM
CC(C)(C)c1ccccc1Nc1cc2c(cc1O)[C@]13CCCC[C@@H]1[C@H](C2)NCC3 [Example 51, (+)-2-(2-t-Butylphenylamino)-3-hydroxymorphinan TFA salt]	36 nM	1400 nM
CS(=O)(=O)Nc1ccccc1Nc1cc2c(cc1O)[C@]13CCCC[C@@H]1[C@H](C2)NCC3 [Example 110, (+)-3-Hydroxy-2-(2-(methanesulfonamido)phenylamino)morphinan TFA salt]	4.53 nM	7550 nM
CCN(C)c1cc2c(cc1O)[C@]13CCCC[C@@H]1[C@H](C2)NCC3 [Example 103, (+)-2-(Ethylmethylamino)-3-hydroxymorphinan TFA salt]	1590 nM	> 100000 nM
CC(C)(C)C(=O)Nc1ccccc1Nc1cc2c(cc1O)[C@]13CCCC[C@@H]1[C@H](C2)NCC3 [Example 115, (+)-3-Hydroxy-2-(2-(pivalamido)phenylamino)morphinan TFA salt]	2500 nM	53600 nM
